We go through 19 compounds from patent US20040156869A1, “2-substituted quinazolin-4-ylamine analogues” (Neurogen Corporation, priority 2002, published 2004).

For the test, the target named is human capsaicin receptor (VR1) (Homo sapiens, UniProt Q8NER1). Nature of the test: Capsaicin receptor binding assay ([3H]RTX competition, VR1-transfected HEK293 membranes).
Sequence of human capsaicin receptor (VR1) (Q8NER1 whole entry): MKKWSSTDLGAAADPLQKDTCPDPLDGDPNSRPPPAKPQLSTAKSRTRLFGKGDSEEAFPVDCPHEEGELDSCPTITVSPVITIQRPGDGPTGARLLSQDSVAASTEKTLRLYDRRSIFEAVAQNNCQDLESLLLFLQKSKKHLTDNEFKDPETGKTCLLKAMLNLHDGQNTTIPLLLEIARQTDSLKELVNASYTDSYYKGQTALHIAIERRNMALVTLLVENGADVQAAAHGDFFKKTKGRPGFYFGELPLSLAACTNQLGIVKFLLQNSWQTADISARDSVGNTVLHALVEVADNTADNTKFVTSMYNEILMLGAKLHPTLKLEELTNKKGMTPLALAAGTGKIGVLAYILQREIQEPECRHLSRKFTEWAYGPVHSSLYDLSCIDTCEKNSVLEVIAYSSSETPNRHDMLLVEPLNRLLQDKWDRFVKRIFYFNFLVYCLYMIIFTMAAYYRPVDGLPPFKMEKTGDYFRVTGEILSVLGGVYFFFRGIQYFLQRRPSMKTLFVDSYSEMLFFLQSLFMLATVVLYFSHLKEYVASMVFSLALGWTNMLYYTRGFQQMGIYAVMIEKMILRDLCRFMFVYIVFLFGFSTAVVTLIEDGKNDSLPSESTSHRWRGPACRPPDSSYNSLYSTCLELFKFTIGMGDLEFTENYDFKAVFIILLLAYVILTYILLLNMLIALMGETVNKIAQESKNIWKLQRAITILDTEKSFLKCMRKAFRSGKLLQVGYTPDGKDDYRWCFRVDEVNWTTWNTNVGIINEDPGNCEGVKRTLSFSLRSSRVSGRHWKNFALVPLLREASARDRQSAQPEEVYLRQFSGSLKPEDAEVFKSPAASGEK
As usually defined, the Ki is the dissociation constant of the complex between target and ligand, obtained from inhibition or displacement. Low values mean a stronger hold on the target, high ones a looser hold on the target. `O=C(NCCN1CCCC1)c1nc(Nc2ccc(C(F)(F)F)cc2)c2ccc(-c3ncccc3C(F)(F)F)nc2n1` [Compound 437, 4-(4-Trifluoromethyl-phenylamino)-7-(3-trifluoromethyl-pyridin-2-yl)-pyrido[2,3-d]pyrimidine-2-carboxylic acid (2-pyrrolidin-1-yl-ethyl)-amide] showed a Ki of less than 1000 nM. Turning to `CCN(CC)CCNC(=O)c1nc(Nc2ccc(C(F)(F)F)cc2)c2ccc(-c3ncccc3C(F)(F)F)nc2n1` [Compound 438, 4-(4-Trifluoromethyl-phenylamino)-7-(3-trifluoromethyl-pyridin-2-yl)-pyrido[2,3-d]pyrimidine-2-carboxylic acid (2-diethylamino-ethyl)-amide], the Ki was less than 1000 nM. In the case of `O=C(NCCN1CCCCC1)c1nc(Nc2ccc(C(F)(F)F)cc2)c2ccc(-c3ncccc3C(F)(F)F)nc2n1` [Compound 439, 4-(4-Trifluoromethyl-phenylamino)-7-(3-trifluoromethyl-pyridin-2-yl)-pyrido[2,3-d]pyrimidine-2-carboxylic acid (2-piperidin-1-yl-ethyl)-amide] it was less than 1000 nM; in that of `CN1CCCC1CCNC(=O)c1nc(Nc2ccc(C(F)(F)F)cc2)c2ccc(-c3ncccc3C(F)(F)F)nc2n1` (stereo not shown) [Compound 440, 4-(4-Trifluoromethyl-phenylamino)-7-(3-trifluoromethyl-pyridin-2-yl)-pyrido[2,3-d]pyrimidine-2-carboxylic acid [2-(1-methyl-pyrrolidin-2-yl)-ethyl]-amide], less than 1000 nM; in that of `CCN(CC)CCCNC(=O)c1nc(Nc2ccc(C(F)(F)F)cc2)c2ccc(-c3ncccc3C(F)(F)F)nc2n1` [Compound 441, 4-(4-Trifluoromethyl-phenylamino)-7-(3-trifluoromethyl-pyridin-2-yl)-pyrido[2,3-d]pyrimidine-2-carboxylic acid (3-diethylamino-propyl)-amide], less than 1000 nM. The figure for `O=C(NCCN1CCOCC1)c1nc(Nc2ccc(C(F)(F)F)cc2)c2ccc(-c3ncccc3C(F)(F)F)nc2n1` [Compound 442, 4-(4-Trifluoromethyl-phenylamino)-7-(3-trifluoromethyl-pyridin-2-yl)-pyrido[2,3-d]pyrimidine-2-carboxylic acid (2-morpholin-4-yl-ethyl)-amide] is less than 1000 nM; for `O=C(NCCCN1CCOCC1)c1nc(Nc2ccc(C(F)(F)F)cc2)c2ccc(-c3ncccc3C(F)(F)F)nc2n1` [Compound 443, 4-(4-Trifluoromethyl-phenylamino)-7-(3-trifluoromethyl-pyridin-2-yl)-pyrido[2,3-d]pyrimidine-2-carboxylic acid (3-morpholin-4-yl-propyl)-amide] it is less than 1000 nM; for `CC(CN(C)C)NC(=O)c1nc(Nc2ccc(C(F)(F)F)cc2)c2ccc(-c3ncccc3C(F)(F)F)nc2n1` (stereo not shown) [Compound 444, 4-(4-Trifluoromethyl-phenylamino)-7-(3-trifluoromethyl-pyridin-2-yl)-pyrido[2,3-d]pyrimidine-2-carboxylic acid (2-dimethylamino-1-methyl-ethyl)-amide] it is less than 1000 nM. As for `CN1C2CCC1CC(NC(=O)c1nc(Nc3ccc(C(F)(F)F)cc3)c3ccc(-c4ncccc4C(F)(F)F)nc3n1)C2` (stereo not shown) [Compound 445, 4-(4-Trifluoromethyl-phenylamino)-7-(3-trifluoromethyl-pyridin-2-yl)-pyrido[2,3-d]pyrimidine-2-carboxylic acid (8-methyl-8-aza-bicyclo[3.2.1]oct-3-yl)-amide], the Ki was less than 1000 nM. Turning to `CCN(CC)CCCC(C)NC(=O)c1nc(Nc2ccc(C(F)(F)F)cc2)c2ccc(-c3ncccc3C(F)(F)F)nc2n1` (stereo not shown) [Compound 446, 4-(4-Trifluoromethyl-phenylamino)-7-(3-trifluoromethyl-pyridin-2-yl)-pyrido[2,3-d]pyrimidine-2-carboxylic acid (4-diethylamino-1-methyl-butyl)-amide], the Ki is less than 1000 nM. In the case of `CN1C(C)(C)CC(NC(=O)c2nc(Nc3ccc(C(F)(F)F)cc3)c3ccc(-c4ncccc4C(F)(F)F)nc3n2)CC1(C)C` [Compound 447, 4-(4-Trifluoromethyl-phenylamino)-7-(3-trifluoromethyl-pyridin-2-yl)-pyrido[2,3-d]pyrimidine-2-carboxylic acid (1,2,2,6,6-pentamethyl-piperidin-4-yl)-amide] it was less than 1000 nM.

`CN1CCC(NC(=O)c2nc(Nc3ccc(C(F)(F)F)cc3)c3ccc(-c4ncccc4C(F)(F)F)nc3n2)CC1` [Compound 448, 4-(4-Trifluoromethyl-phenylamino)-7-(3-trifluoromethyl-pyridin-2-yl)-pyrido[2,3-d]pyrimidine-2-carboxylic acid (1-methyl-piperidin-4-yl)-amide] yielded a Ki of less than 1000 nM. Take `CNC(=O)c1nc(Nc2ccc(C(F)(F)F)cc2)c2ccc(-c3ncccc3C(F)(F)F)nc2n1` [Compound 449, 4-(4-Trifluoromethyl-phenylamino)-7-(3-trifluoromethyl-pyridin-2-yl)-pyrido[2,3-d]pyrimidine-2-carboxylic acid methylamide]: the inhibition constant (Ki) is less than 1000 nM. `CCNC(=O)c1nc(Nc2ccc(C(F)(F)F)cc2)c2ccc(-c3ncccc3C(F)(F)F)nc2n1` [Compound 450, 4-(4-Trifluoromethyl-phenylamino)-7-(3-trifluoromethyl-pyridin-2-yl)-pyrido[2,3-d]pyrimidine-2-carboxylic acid ethylamide] showed a Ki of less than 1000 nM. As to `C=CCNC(=O)c1nc(Nc2ccc(C(F)(F)F)cc2)c2ccc(-c3ncccc3C(F)(F)F)nc2n1` [Compound 451, 4-(4-Trifluoromethyl-phenylamino)-7-(3-trifluoromethyl-pyridin-2-yl)-pyrido[2,3-d]pyrimidine-2-carboxylic acid allylamide], the inhibition constant Ki is less than 1000 nM.

`CCCNC(=O)c1nc(Nc2ccc(C(F)(F)F)cc2)c2ccc(-c3ncccc3C(F)(F)F)nc2n1` [Compound 452, 4-(4-Trifluoromethyl-phenylamino)-7-(3-trifluoromethyl-pyridin-2-yl)-pyrido[2,3-d]pyrimidine-2-carboxylic acid propylamide] came in with a Ki of less than 1000 nM. The figure for `O=C(NCC1CC1)c1nc(Nc2ccc(C(F)(F)F)cc2)c2ccc(-c3ncccc3C(F)(F)F)nc2n1` [Compound 453, 4-(4-Trifluoromethyl-phenylamino)-7-(3-trifluoromethyl-pyridin-2-yl)-pyrido[2,3-d]pyrimidine-2-carboxylic acid cyclopropylmethyl-amide] is less than 1000 nM; for `CCOCCNC(=O)c1nc(Nc2ccc(C(F)(F)F)cc2)c2ccc(-c3ncccc3C(F)(F)F)nc2n1` [Compound 454, 4-(4-Trifluoromethyl-phenylamino)-7-(3-trifluoromethyl-pyridin-2-yl)-pyrido[2,3-d]pyrimidine-2-carboxylic acid (2-ethoxy-ethyl)-amide] it is less than 1000 nM.

In the case of `COCCNC(=O)c1nc(Nc2ccc(C(F)(F)F)cc2)c2ccc(-c3ncccc3C(F)(F)F)nc2n1` [Compound 455, 4-(4-Trifluoromethyl-phenylamino)-7-(3-trifluoromethyl-pyridin-2-yl)-pyrido[2,3-d]pyrimidine-2-carboxylic acid (2-methoxy-ethyl)-amide], the Ki is less than 1000 nM.
